This is an account of results in US20220232831A1, “NOVEL NON-CODING HETEROCYCLIC AMINO ACIDS (NCHAA) AND THEIR USE AS HERBICIDES” (Fortephest Ltd., priority 2019, published 2022).

For assay [1], the system named is Romaine lettuce (Lactuca sativa L.) plants. Put plainly: Post-emergency herbicidal activity on Romaine lettuce plants. Type of assay: in vivo. The conditions noted are these: Romaine lettuce at stage 2 to 3 leaves; compound in 0.1% Silwet, up to 0.5%; visual evaluation vs control plants. As for the experimental part:
The tests were performed on Romaine lettuce (Lactuca sativa L.) plants at the stage 2 to 3 leaves. The plants were grown on 300 well trays packed with soil, well dimensions 2×2×5 cm. Each compound was dissolved in 0.1% water solution of agronomically acceptable surfactant Silwet to final concentrations ranging from 0.0% (Control) to 0.5%. Two weeks after the treatment the herbicidal effects of the respective test material were visually evaluated by a comparison with the control plants. In addition, the aboveground part of the plant was neatly cut and weighed (wet weight). Each test was performed on 20 to 40 plants. The degree of growth inhibition and damage was evaluated according to the parameters in Table 2. Plant development at 7, 14, and 21 DAA (days after application) were evaluated on a scale of 0 to 100, in which score 0 represents dead plants and score 100 represents healthy plants according to plant vigor, height, and leaf color. Each test included 20 to 40 plants.

Assay [2] relates to Seeds of Lettuce R. (Super-Jericho). Put plainly: Filter paper bioassay with lettuce seeds (germination and early plant development). The format is in vivo. The conditions noted are these: lettuce seeds on filter paper; 1, 0.1, 0.01, 0.001 mM; radicle and shoots assessed after 6 days. Here is the method: Seeds of Lettuce R. (Super-Jericho, non-sterilized) were obtained from Ben Shahar Moshe Ltd., 99% purity.
Filter Paper Bioassays with Lettuce Seeds:
The protocol is following Bertin et al. 2009 and Movellan et al. 2014 with specified modifications as described below.
Seeds were placed on Whatman no. 1 filter paper (Whatman, Middlesex, U.K.) in Petri dishes (10 seeds per plate) supplemented with 2.0 ml of water (Control) or with a solution comprising 1 mM, 0.1 mM, 0.01 mM and 0.001 mM of test material. Petri dishes with seeds were placed in a tray at an angle of 45°. The trays were kept in dark for 48 hours and then transferred to the growth chamber (22° C., 0.045 mmol×m−2×s−1 photosynthetic photon flux density; 6/18 dark/light cycle) for additional 4 days. Each experiment was performed at least in two repeats. The development of radicle and shoots of experimental and control plants were visually assessed 6 days after the beginning of the test to determine Minimal Effective Concentration (MEC) of test material. In the context of the invention, MEC is defined as the lowest concentration level of a test material that caused deviation (absence of germination or malformation of radicle and shoots) from the plant's development in the Control group.

For `Nc1cncc(CC(N)C(=O)O)c1` (centres unmarked) [Code 610], the “post-emergency herbicidal activity (Activity Index: plant's development vs Control)” value in assay [1] is given as “Weak (More than 75)”. Further, the “Minimal Effective Concentration (MEC) as activity score, seeds germination & early plants development” value (shortened to “Minimal Effective Concentration (MEC)”) in assay [2] is on record as “Weak (More than 1 mM)”.

In the case of `NC(Cc1cncc(S)c1)C(=O)O` (centres unmarked) [Code 612], the “post-emergency herbicidal activity (Activity Index: plant's development vs Control)” value in assay [1] is “Weak (More than 75)”. Also, the “Minimal Effective Concentration (MEC)” value in assay [2] is listed as “Weak (More than 1 mM)”.

Turning to `NC(Cc1ccnc(S)c1)C(=O)O` (centres unmarked) [Code 613], the “post-emergency herbicidal activity (Activity Index: plant's development vs Control)” value in assay [1] is on record as “Weak (More than 75)”. Further, in assay [2], the “Minimal Effective Concentration (MEC)” value was “Weak (More than 1 mM)”.

As to `NC(Cc1cncnc1)C(=O)O` (centres unmarked) [Code 614], in assay [1], the “post-emergency herbicidal activity (Activity Index: plant's development vs Control)” value is on record as “Weak (More than 75)”. For the same molecule, the “Minimal Effective Concentration (MEC)” value in assay [2] was “Weak (More than 1 mM)”.

Consider `Nc1cc(Cl)nc(CC(N)C(=O)O)n1` (centres unmarked) [Code 616], for which, in assay [1], the “post-emergency herbicidal activity (Activity Index: plant's development vs Control)” value is on record as “Weak (More than 75)”. Further, the “Minimal Effective Concentration (MEC)” value in assay [2] is “Weak (More than 1 mM)”.

Take `Cl.Cl.NC(Cc1ncccn1)C(=O)O` (centres unmarked) [Code 618]: in assay [1], the “post-emergency herbicidal activity (Activity Index: plant's development vs Control)” value is “Weak (More than 75)”. Also, the “Minimal Effective Concentration (MEC)” value in assay [2] is on record as “Weak (More than 1 mM)”.

Regarding `NC(Cc1nccc(O)n1)C(=O)O` (centres unmarked) [Code 619], the “post-emergency herbicidal activity (Activity Index: plant's development vs Control)” value in assay [1] is on record as “Weak (More than 75)”. Also, the “Minimal Effective Concentration (MEC)” value in assay [2] was “Weak (More than 1 mM)”.

Consider `NC(Cc1c[nH]c(=O)[nH]c1=O)C(=O)O` (centres unmarked) [Code 620], for which the “post-emergency herbicidal activity (Activity Index: plant's development vs Control)” value in assay [1] is “Weak (More than 75)”. Besides, the “Minimal Effective Concentration (MEC)” value in assay [2] is “Weak (More than 1 mM)”.

For `NC(Cc1cnccn1)C(=O)O` (centres unmarked) [Code 621], in assay [1], the “post-emergency herbicidal activity (Activity Index: plant's development vs Control)” value is given as “Weak (More than 75)”. Also, in assay [2], the “Minimal Effective Concentration (MEC)” value is listed as “Weak (More than 1 mM)”.

On to `NC(Cc1cncc(Cl)c1)C(=O)O` (centres unmarked) [Code 622], for which the “post-emergency herbicidal activity (Activity Index: plant's development vs Control)” value in assay [1] is “Moderate (From 50 to 75)”. The “Minimal Effective Concentration (MEC)” value in assay [2] was “Strong (0.1 mM)”.

Take `NC(Cc1cc(Cl)cnc1Cl)C(=O)O` (centres unmarked) [Code 624]: in assay [1], the “post-emergency herbicidal activity (Activity Index: plant's development vs Control)” value is given as “Moderate (From 50 to 75)”. In addition, the “Minimal Effective Concentration (MEC)” value in assay [2] is “Moderate (1 mM)”.

With `NC(Cc1ccncn1)C(=O)O` (centres unmarked) [Code 625], the “post-emergency herbicidal activity (Activity Index: plant's development vs Control)” value in assay [1] is recorded as “Weak (More than 75)”. Further, the “Minimal Effective Concentration (MEC)” value in assay [2] is “Moderate (1 mM)”.

Consider `NC(Cc1cncc(F)c1)C(=O)O` (centres unmarked) [Code 626], for which the “post-emergency herbicidal activity (Activity Index: plant's development vs Control)” value in assay [1] is on record as “Strong (From 25 to 50)”. For the same molecule, the “Minimal Effective Concentration (MEC)” value in assay [2] is “Strong (0.1 mM)”.

With `NC(Cc1ccc(Cl)nc1)C(=O)O` (centres unmarked) [Code 627], the “post-emergency herbicidal activity (Activity Index: plant's development vs Control)” value in assay [1] is on record as “Moderate (From 50 to 75)”. Also, the “Minimal Effective Concentration (MEC)” value in assay [2] is recorded as “Strong (0.1 mM)”.

As to `NC(Cc1cc(Cl)nc(Cl)c1)C(=O)O` (centres unmarked) [Code 628], in assay [1], the “post-emergency herbicidal activity (Activity Index: plant's development vs Control)” value is listed as “Very Strong (From 15 to 25)”. Also, in assay [2], the “Minimal Effective Concentration (MEC)” value is given as “Moderate (1 mM)”.

With `NC(Cc1c(Cl)cncc1Cl)C(=O)O` (centres unmarked) [Code 629], in assay [1], the “post-emergency herbicidal activity (Activity Index: plant's development vs Control)” value is listed as “Moderate (From 50 to 75)”. The “Minimal Effective Concentration (MEC)” value in assay [2] is reported as “Weak (More than 1 mM)”.

For the molecule `NC(Cc1c(F)cncc1F)C(=O)O` (centres unmarked) [Code 630], the “post-emergency herbicidal activity (Activity Index: plant's development vs Control)” value in assay [1] was “Strong (From 25 to 50)”. The “Minimal Effective Concentration (MEC)” value in assay [2] is reported as “Moderate (1 mM)”.

In the case of `CN(C)c1cc(CC(N)C(=O)O)ccn1` (centres unmarked) [Code 631], the “post-emergency herbicidal activity (Activity Index: plant's development vs Control)” value in assay [1] is recorded as “Weak (More than 75)”. For the same molecule, the “Minimal Effective Concentration (MEC)” value in assay [2] is given as “Weak (More than 1 mM)”.

In the case of `NC(Cc1cnc(Br)c(Br)c1)C(=O)O` (centres unmarked) [Code 633], the “post-emergency herbicidal activity (Activity Index: plant's development vs Control)” value in assay [1] is on record as “Strong (From 25 to 50)”. In addition, the “Minimal Effective Concentration (MEC)” value in assay [2] is listed as “Strong (0.1 mM)”.

As for `NC(Cc1cc(Br)nc(Br)c1)C(=O)O` (centres unmarked) [Code 634], in assay [1], the “post-emergency herbicidal activity (Activity Index: plant's development vs Control)” value is on record as “Very Strong (From 15 to 25)”. In addition, the “Minimal Effective Concentration (MEC)” value in assay [2] is on record as “Strong (0.1 mM)”.

Take `NC(Cc1ccnc(Br)c1Br)C(=O)O` (centres unmarked) [Code 635]: in assay [1], the “post-emergency herbicidal activity (Activity Index: plant's development vs Control)” value is “Weak (More than 75)”. Further, the “Minimal Effective Concentration (MEC)” value in assay [2] is listed as “Weak (More than 1 mM)”.

On to `NC(Cc1cncc(C(F)(F)F)c1)C(=O)O` (centres unmarked) [Code 637], for which, in assay [1], the “post-emergency herbicidal activity (Activity Index: plant's development vs Control)” value was “Weak (More than 75)”. Besides, in assay [2], the “Minimal Effective Concentration (MEC)” value is “Strong (0.1 mM)”.

Consider `NC(Cc1cnc(Cl)c(Cl)c1)C(=O)O` (centres unmarked) [Code 641], for which the “post-emergency herbicidal activity (Activity Index: plant's development vs Control)” value in assay [1] was “Very Strong (From 15 to 25)”. In addition, in assay [2], the “Minimal Effective Concentration (MEC)” value is on record as “Strong (0.1 mM)”.

For the molecule `NC(Cc1cc[nH]c(=O)c1)C(=O)O` (centres unmarked) [Code 642], the “post-emergency herbicidal activity (Activity Index: plant's development vs Control)” value in assay [1] was “Weak (More than 75)”. Moreover, in assay [2], the “Minimal Effective Concentration (MEC)” value is listed as “Weak (More than 1 mM)”.

With `CN(C)c1ccncc1CC(N)C(=O)O` (centres unmarked) [Code 643], the “post-emergency herbicidal activity (Activity Index: plant's development vs Control)” value in assay [1] is “Weak (More than 75)”. Besides, the “Minimal Effective Concentration (MEC)” value in assay [2] is “Weak (More than 1 mM)”.

Regarding `NC(Cc1ccc[nH]c1=O)C(=O)O` (centres unmarked) [Code 644], in assay [1], the “post-emergency herbicidal activity (Activity Index: plant's development vs Control)” value was “Weak (More than 75)”. Further, the “Minimal Effective Concentration (MEC)” value in assay [2] is “Weak (More than 1 mM)”.

Take `NC(Cc1cc(=O)[nH]cn1)C(=O)O` (centres unmarked) [Code 645]: the “post-emergency herbicidal activity (Activity Index: plant's development vs Control)” value in assay [1] is on record as “Weak (More than 75)”. Further, the “Minimal Effective Concentration (MEC)” value in assay [2] is “Weak (More than 1 mM)”.

In the case of `NC(Cc1cnc[nH]c1=O)C(=O)O` (centres unmarked) [Code 646], the “post-emergency herbicidal activity (Activity Index: plant's development vs Control)” value in assay [1] is on record as “Weak (More than 75)”. Moreover, the “Minimal Effective Concentration (MEC)” value in assay [2] is on record as “Weak (More than 1 mM)”.

In the case of `NC(Cc1ccc(=O)[nH]c1)C(=O)O` (centres unmarked) [Code 650], the “post-emergency herbicidal activity (Activity Index: plant's development vs Control)” value in assay [1] is given as “Weak (More than 75)”. Further, in assay [2], the “Minimal Effective Concentration (MEC)” value is “Moderate (1 mM)”.

Regarding `NC(Cc1cc(=O)[nH]c(=O)[nH]1)C(=O)O` (centres unmarked) [Code 652], the “post-emergency herbicidal activity (Activity Index: plant's development vs Control)” value in assay [1] is listed as “Weak (More than 75)”. The “Minimal Effective Concentration (MEC)” value in assay [2] was “Weak (More than 1 mM)”.

As for `NC(Cc1cc(=O)[nH]c(S)n1)C(=O)O` (centres unmarked) [Code 653], the “post-emergency herbicidal activity (Activity Index: plant's development vs Control)” value in assay [1] is on record as “Weak (More than 75)”. The “Minimal Effective Concentration (MEC)” value in assay [2] was “Weak (More than 1 mM)”.
